According to patent EP4729530A1, “NOVEL PEPTIDE AND USE THEREOF” (Gemvax & Kael Co., Ltd., priority 2023, dated 2024):

How the values were obtained:
[1] = system: AT8 (phospho-Tau S202/T205); experiment: Immunofluorescence staining of brain tissue (AT8) for tau hyperphosphorylation; format: in vivo, mouse; conditions: GV2002 2 mg/kg subcutaneous, 3 times/week, 21 weeks
Method: (§1) In vivo experiments were performed on the 4R tauopathy mouse groups shown in FIG. 4 according to the schedule shown in FIG. 5 and the outline in Table 3 below.
The brains of a 4R tauopathy mouse model administered GV2002 for 5 months, from 7.5 to 12.5 months of age, were removed and analyzed using immunofluorescence staining.
For brain tissue sampling, the 4R tauopathy mouse models were anesthetized, and saline was perfused intracardially, after which the blood was removed using a perfusion pump device. Then, the brains were removed and weighed. The brains to be used for tissue staining experiments were fixed in a 4% PFA solution for 24 hours. The fixed brain tissue was immersed in a 20% sucrose solution for 24 hours and then in a 30% sucrose solution for 48 hours for dehydration. The dehydrated brain tissue was removed, excess moisture was eliminated, and the brain tissue and a cryoembedding agent (OCT compound) were placed together in a mold to protect the tissue, after which the brain tissue was rapidly frozen using dry ice. The frozen brain tissue mold was stored in a -80 °C freezer. Afterwards, the brain tissue was sectioned into 30-µm-thick sections using a cryostat and stored in a 0.05% sodium azide solution.
For immunofluorescence staining of brain tissue, 30-µm-thick frozen brain sections were selected according to brain region, washed three times with PBS for 10 minutes each, fixed in 3.7% formaldehyde for 5 minutes, and washed three times with PBS for 10 minutes each. The brain tissue samples were permeabilized in 0.3% PBS-T solution, and then blocked in 5% BSA solution in PBS for 1 hour. The brain tissues were incubated overnight in 3% BSA and 0.1% Tween-20 solution in PBS containing AT8 (phospho-Tau S202/T205) antibody diluted at a ratio of 1:200, which targets tau hyperphosphorylation. The brain tissues were washed three times with PBS for 10 minutes each. The brain tissues were then incubated for 1 hour at room temperature in 3% BSA and 0.1% Tween-20 solution in PBS containing secondary antibody diluted 1:500. The brain tissues were immersed in PBS solution and washed once for 10 minutes. […] The brain tissues were immersed in PBS solution and washed three times for 10 minutes each, and fluorescence imaging was performed using a slide scanner.
To obtain fluorescence images of the stained brain tissue, brain tissue slides were scanned using a Zeiss Axio Scan (Zeiss, Oberkochen, Germany). AT8 fluorescence levels in each brain tissue region obtained through fluorescence imaging, i.e., the somatosensory cortex, hippocampus (CA1), motor cortex, and substantia nigra, were calculated using ImageJ software (NIH). The calculated values were analyzed using one-way ANOVA with Dunnett's multiple comparisons test.

[2] = system: total tau (Tau5) and phosphorylated tau (pS199, pS396); experiment: Brain lysate analysis by tau immunoblot (soluble and insoluble fractions); format: in vivo, mouse; conditions: GV2002 2 mg/kg subcutaneous, 3 times/week, 21 weeks
Method: as §1
Brain lysates from a 4R tauopathy mouse model administered GV2002 for five months, from 7.5 to 12.5 months of age, were obtained. Soluble and insoluble fraction samples were subjected to immunoblotting using antibodies against total tau (Tau5) and phosphorylated tau (pS199, pS396), and the levels of total and phosphorylated tau were quantitatively analyzed.
Mouse models were anesthetized, saline was intracardially perfused, and blood was removed using a perfusion pump device. The brain was then removed and weighed. 1 mL of RIPA buffer (containing protease and phosphatase inhibitor cocktails) was added to the extracted brain and homogenized.
The homogenized brain lysates were transferred to EP tubes and incubated on an orbital shaker at 4°C for 2 hours. After centrifugation at 13,000 rpm for 20 minutes at 4°C, the supernatant (soluble fraction) was collected in a new EP tube and stored at -80°C.
To prepare samples for immunoblotting, the concentrations of the fractionated samples were quantified using the Bradford protein quantification assay. RIPA buffer and 4X SDS Laemmli sample buffer (containing 2.5% β-mercaptoethanol for reducing conditions) were added to each sample to adjust the final protein concentration to 2 mg/mL. The samples were then boiled at 97°C for 5 minutes.
Meanwhile, to obtain the insoluble fraction, the remaining pellet after supernatant removal was resuspended in RIPA buffer containing 1 M sucrose (1 mL) and DNase I (1 mg/mL). […]
20 µg of each brain lysate sample of soluble and insoluble fractions were loaded onto a 10% SDS-PAGE gel (SDS-PAGE running buffer: 1X Tris/Glycine/SDS buffer in 3' D.W.), and electrophoresis was performed at 80 V for 30 minutes followed by 90 V for 1 hour. […] Protein bands of the membrane were detected using ChemiDoc with ECL solution, which is HRP substrate, and band intensities were quantified using ImageJ software (NIH).

[3] = soluble fraction of brain lysate

Ac-EARPALLTSRLRFIPK-NH2 [GV2002]
AT8 fluorescence intensity, reduction compared to the vehicle-administered group ([1]; hippocampus region): 62%
AT8 fluorescence intensity, reduction compared to the vehicle-administered group ([1]; motor cortex region): 65%
AT8 fluorescence intensity, reduction compared to the vehicle-administered group ([1]; somatosensory cortex region): 57%
AT8 fluorescence intensity, reduction compared to the vehicle-administered group ([1]; substantia nigra region): 69%
level of insoluble tau, reduced to (compared to the vehicle-administered group) ([2]; insoluble fraction of brain lysate, total tau (Tau5)): 57%
phosphorylated tau pS199, reduced to (compared to the vehicle-administered group) [2, 3]: 66%
phosphorylated tau pS396, reduced to (compared to the vehicle-administered group) [2, 3]: 56%
